From ChEMBL document CHEMBL6092217 (Eur J Med Chem, 2024) come the findings set out here.

In data set [1] the test system is HT-29. As to the kind of experiment: Induction of apoptosis in human HT-29 cells assessed as early apoptotic cells at 50 nM incubated for 24 hrs by FITC/PI staining based flow cytometry analysis (reference value: 8.14%). Type of data set: functional. In general terms: A flow cytometer gives signals particle by particle.
Data set [2] can be described thus: Toxicity in BALB/c mouse assessed as liver damage at 10 to 40 mg/kg, iv measured after 21 days by H and E staining based analysis. Type of data set: organism-based. The note with it: in vivo, 504 h, dose 10-40 mg/kg, time 21 day.
For data set [3], the system named is HT-29. As to the kind of experiment: Induction of cell cycle arrest in human HT-29 cells assessed as accumulation of cells at G2 phase at 100 nM incubated for 24 hrs by flow cytometry analysis (reference value: 13 %). The format is functional.
The subject of data set [4] is HT-29. Nature of the data set: Induction of cell cycle arrest in human HT-29 cells assessed as accumulation of cells at S phase at 200 nM incubated for 24 hrs by flow cytometry analysis (reference value: 20.8 %). The format is functional.

With `COc1ccc(N(C)c2nc(/C=C/c3cccc(OC)c3)nc3ccccc23)cc1`, the Activity in data set [1] is recorded as 12.7%; in data set [2] it was “Non-toxic”; in data set [3] it was 39.8%; in data set [4], 7.31%.
